US20230165867A1 (CHENGDU BAIYU PHARMACEUTICAL CO., LTD., priority 2020, published 2023)
Where two headings read alike, the source gives them in different places.

Columns and labels:
DNA-PK kinase = molecular target: T1, DNA-PK kinase (Homo sapiens, UniProt P78527); experiment: Inhibition assay of DNA-PK kinase (Promega kit, ADP-Glo chemiluminescence); type: biochemical; conditions: 50 µM ATP, 37° C., 60 min; read-out: IC50 (nM), inhibitory activity on DNA-PK kinase
T1 construct: purchased Promega V4107
In short: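 Compounds incubated with DNA-PK at 37° C for 60 min; reaction stopped with ADP-Glo reagent (40 min, RT), then kinase detection reagent (30 min, RT). ADP formed read by luminescence against an ADP standard curve.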

[1] = Metabolic stability in liver microsomes; type: in vitro ADME, human; conditions: human, human liver microsomes; 0.5 µM test substance, 0.5 mg/mL microsomes, NADPH and UDPGA, 37° C.; read-out: T½(min), stability in human liver microsomes
Description: Liver microsomes (purchased from Reed Liver Disease Research (Shanghai) Co., Ltd., product: human liver microsomes (NJT)); NADPH (purchased from Roche, Lot: 40939); UDPGA; the compounds of the present invention (test substances).
• (1) A mixed working solution of testosterone (0.5 µM) and 7-hydroxycoumarin (0.5 µM) was prepared. • (2) A mixed solution of NADPH (1 mM) and UDPGA (1 mM) was prepared, and prewarmed at 37° C. in a water bath shaker before use. • (3) Liver microsomes were thawed and diluted with a buffer. • (4) A preparation of a test substance (0.5 µM) and a solution of liver microsomes (0.5 mg/mL) were added to each well of an incubation plate. • (5) Three experimental groups were set and samples were added. Test group: the test substance was incubated with liver microsomes for 0 min, 30 min, 60 min, and 120 min in the presence of the coenzyme NADPH and UDPGA; Positive control group: testosterone (0.5 µM) and 7-hydroxycoumarin (0.5 µM) were incubated with microsomes for 0 min and 120 min in the presence of the coenzyme NADPH and UDPGA; Negative control group: the test substance was incubated with microsomes for 0 and 120 min without any coenzyme. • (6) All samples were incubated at 37° C., and pre-cooled methanol was added at each termination time (0, 15, 30, 45, 60 min, 120 min) to terminate the reaction, and the time was recorded. • (7) All samples were mixed well and centrifuged at 4000 rpm for 10 min. The supernatant was taken and measured by LC-MS/MS for the amount of the test substance remaining in the samples. Data analysis was carried out as follows: T½=0.693 /k, Clint = (0.693/T½) × (1 /(microsomal protein) × Scaling Factors), Note: k is the slope of the logarithm of the remaining amounts of compound versus time.

[2] = Pharmacokinetic assay in ICR mice (i.v. and p.o.); type: in vivo; conditions: mouse, plasma, male ICR mice; for half-life: read-out: T½ (converted); for bioavailability: po 10 mg/kg vs iv 1 mg/kg
Description: ICR mice were purchased from Beijing Vital River Laboratory Animal Technology Co., Ltd.
3.2 Experimental procedure • (1) Healthy male ICR mice (18-22 g) were prepared, with 18 mice for each compound. The mice were divided into 2 groups (an i.v. group and a p.o. group), with 9 mice per group. 3 mice were picked for blood collection at each time point. • (2) After the animals were fasted overnight (with free access to water), the compound of the present invention dissolved (or suspended) in a solvent of 5% DMSO and 95% 30% HP-β-CD (v:v) was administered via the tail vein (i.v., 1 mg/kg) or intragastrically (p.o., 10 mg/kg), respectively. • (3) For the i.v. group, 0.1 mL blood was collected from the submandibular vein 5 min, 15 min, 0.5 h, 1 h, 2 h, 4 h, 8 h, 12 h, and 24 h after administration, respectively, anticoagulated with EDTA-K2, and centrifuged at 4° C. for 5 min to obtain plasma, which was stored at -20° C. until testing. (4) For the p.o. group, 0.1 mL blood was collected from the submandibular vein before administration and 15 min, 0.5 h, 1 h, 2 h, 4 h, 6 h, 8 h, 12 h, and 24 h after administration, and treated in the same manner as that for the intravenous group. • (5) The concentration of the compound of the present invention in plasma was measured by LC/MS/MS. • (6) Calculation and fitting were performed with Analyst 1.6 from AB Company, and the results are shown in Table 3.

SMILES | IC50 (DNA-PK kinase) | half-life at 0.5 µM [1] | AUC ([2]; iv, 1 mg/kg) | half-life ([2]; iv, 1 mg/kg) | bioavailability [2] | AUC ([2]; po, 10 mg/kg) | Cmax ([2]; po, 10 mg/kg) | half-life ([2]; po, 10 mg/kg)
COc1cc(C)c(Nc2ncc3c(n2)n(C2CCOCC2)c(=O)n3C)cn1 [Compound 9, 2-((6-methoxy-4-methylpyridin-3-yl)amino)-7-methyl-9-(tetrahydro-2H-pyran-4-yl)-7,9-dihydro-8H-purin-8-one] | 0.47 nM | > 120 min | 323 ng·h/mL | 24.6 min | 51.4% | 1660 ng·h/mL | 1490 ng/mL | 80.4 min
Cc1sc(C(N)=O)cc1Nc1ncc2c(n1)n(C1CCOCC1)c(=O)n2C [Compound 42, 5-Methyl-4-((7-methyl-8-oxo-9-(tetrahydro-2H-pyran-4-yl)-8,9-dihydro-7H-purin-2-yl)amino)thiophene-2-carboxamide] | 2.05 nM | > 120 min | 230 ng·h/mL | 84.6 min | 70% | 1500 ng·h/mL | 858 ng/mL | 104 min
Cc1cc(C(N)=O)c(F)cc1Nc1ncc2c(n1)n([C@H]1CC[C@H](C#N)CC1)c(=O)n2C [Compound 79, 4-((9-(trans-4-cyanocyclohexyl)-7-methyl-8-oxo-8,9-dihydro-7H-purin-2-yl)amino)-2-fluoro-5-methylbenzamide] | 1.86 nM | > 120 min | 482 ng·h/mL | 37.8 min | 100% | 4440 ng·h/mL | 2490 ng/mL | 129 min
Cn1c(=O)n(C2CCOCC2)c2nc(Nc3ccc(C(N)=O)cc3Cl)ncc21 [Compound 26, 3-Chloro-4-((7-methyl-8-oxo-9-(tetrahydro-2H-pyran-4-yl)-8,9-dihydro-7H-purin-2-yl)amino)benzamide] | 7.6 nM | > 120 min | 639 ng·h/mL | 91.2 min | 110% | 7100 ng·h/mL | 2730 ng/mL | 179 min
Cc1cc(C(N)=O)c(F)cc1Nc1ncc2c(n1)n([C@H]1CC[C@@H](C#N)CC1)c(=O)n2C [Compound 77, 4-((9-(cis-4-cyanocyclohexyl)-7-methyl-8-oxo-8,9-dihydro-7H-purin-2-yl)amino)-2-fluoro-5-methylbenzamide] | 4.67 nM | > 120 min | 545 ng·h/mL | 93 min | 108% | 5970 ng·h/mL | 1750 ng/mL | 194 min
CNC(=O)c1cc(C)c(Nc2ncc3c(n2)n(C2CCOCC2)c(=O)n3C)cn1 [Compound 54, N,4-Dimethyl-5-((7-methyl-8-oxo-9-(tetrahydro-2H-pyran-4-yl)-8,9-dihydro-7H-purin-2-yl)amino)picolinamide] | 8.07 nM | > 120 min | 840 ng·h/mL | 313 min | 63.9% | 5370 ng·h/mL | 2060 ng/mL | 193 min
[2H]C([2H])([2H])Oc1cc(C)c(Nc2ncc3c(n2)n(C2CCOCC2)c(=O)n3C)cn1 [Compound 38, 2-((6-(methoxy-d3)-4-methylpyridin-3-yl)amino)-7-methyl-9-(tetrahydro-2H-pyran-4-yl)-7,9-dihydro-8H-purin-8-one] | 0.47 nM | > 120 min | 269 ng·h/mL | 20.5 min | 47.7% | 1310 ng·h/mL | 2200 ng/mL | 61.2 min

Continued, values first:

IC50 (DNA-PK kinase) | half-life at 0.5 µM [1] | AUC ([2]; iv, 1 mg/kg) | half-life ([2]; iv, 1 mg/kg) | bioavailability [2] | AUC ([2]; po, 10 mg/kg) | Cmax ([2]; po, 10 mg/kg) | half-life ([2]; po, 10 mg/kg) | SMILES
5.69 nM | > 120 min | 109 ng·h/mL | 18.6 min | 69.2% | 756 ng·h/mL | 984 ng/mL | 126 min | Cc1cc(C(N)=O)c(F)cc1Nc1ncc2c(n1)n([C@H]1CCOC1)c(=O)n2C [Compound 75, (S)-2-fluoro-5-methyl-4-((7-methyl-8-oxo-9-(tetrahydrofuran-3-yl)-8,9-dihydro-7H-purin-2-yl)amino)benzamiderile]
3.9 nM | > 120 min | 609 ng·h/mL | 27.6 min | 42.1% | 2560 ng·h/mL | 1820 ng/mL | 73.2 min | CCNC(=O)c1ccc(Nc2ncc3c(n2)n(C2CCOCC2)c(=O)n3C)c(C)c1 [Compound 29, N-ethyl-3-methyl-4-((7-methyl-8-oxo-9-(tetrahydro-2H-pyran-4-yl)-8,9-dihydro-7H-purin-2-yl)amino)benzamide]
11.1 nM | > 120 min | 6300 ng·h/mL | 187 min | 33.6% | 21200 ng·h/mL | 3570 ng/mL | 130 min | Cc1cc(C#N)ccc1Nc1ncc2c(n1)n([C@H]1CC[C@H](C#N)CC1)c(=O)n2C [Compound 80, 4-((9-(trans-4-cyanocyclohexyl)-7-methyl-8-oxo-8,9-dihydro-7H-purin-2-yl)amino)-3-methylbenzonitrile]
1.96 nM | > 120 min | 120 ng·h/mL | 18 min | 104% | 1360 ng·h/mL | 1570 ng/mL | 55.8 min | Cc1cc(C(N)=O)c(F)cc1Nc1ncc2c(n1)n([C@@H]1CCOC1)c(=O)n2C [Compound 76, (R)-2-fluoro-5-methyl-4-((7-methyl-8-oxo-9-(tetrahydrofuran-3-yl)-8,9-dihydro-7H-purin-2-yl)amino)benzamiderile]
1.1 nM | > 120 min |  |  |  |  |  |  | Cc1cc(C(N)=O)c(F)cc1Nc1ncc2c(n1)n(C1CC3CCC(C1)O3)c(=O)n2C (stereo not drawn) [Compound 85, 4-((9-(8-oxabicyclo[3.2.1]octan-3-yl)-7-methyl-8-oxo-8,9-dihydro-7H-purin-2-yl)amino)-2-fluoro-5-methylbenzamide]
